In patent publication US20240239766A1, “3-AMINO PIPERIDYL SODIUM CHANNEL INHIBITORS” (Genentech, Inc., priority 2021, published 2024):
pIC50: −log10 of the molar value. Counter-ions that a name gives are not always drawn.

Molecular target: hNav1.7 (Homo sapiens (Human), UniProt Q15858)
Experiment: Patch voltage clamp electrophysiology assay (EP), Syncropatch 384PE, CHO cells expressing Nav1.7
Type: cell-based
Conditions: holding potential −50 mV; 7.5 min compound incubation; read-out: EP SP hNav1.7 EVO (IC50)
From the text: Example 101c: Electrophysiological Assay (EP) (In Vitro Assay)
Patch voltage clamp electrophysiology allows for the direct measurement and quantification of block of voltage-gated sodium channels (NaV's), and allows the determination of the time- and voltage-dependence of block which has been interpreted as differential binding to the resting, open, and inactivated states of the sodium channel (Hille, B., Journal of General Physiology (1977), 69: 497-515).
The following voltage clamp electrophysiology studies are performed on representative compounds using cells heterologously expressing Nav1.7 or Nav1.5 channels. cDNAsfor Nav1.7 (NM_002977) and Nav1.5 (AC137587) are stably expressed in Chinese Hamstr Ovary (CHO) cells and CHL (Chinese Hamster Lung) cells respectively. Sodium currents are measured in the whole-cell configuration using Syncropatch 384PE (Nanlon Technologies, Germany). 1NPC®-384 chips with custom medium resistance and single hole mode are used. Internal solution consists of (in mM): […], 10 CsCl, 20 EGTA, and 10 Hepes (pH adjusted to 7.2); and external solution contains (in mM): 60 NMDG, 80 NaCl, 4 KCl, 1 MgCl2, 2 CaCl2), 2 D-Glucose monohydrate, 10 Hepes (pH adjusted to 7.4 with NaOH).
After system flushing, testing compounds are dissolved in external solution containing 0.1% Pluronic F-127. The chip is moved into the measuring head and the instrument primes the chip with external and internal solutions. 10 μl cells are added to the chip from a cell hotel, and a negative pressure of −50 mBar is applied to form a seal. Following treatment with seal enhancer solution and wash-off with external solution, negative pressure of −250 mbar is applied for 1 second to achieve the whole-cell configuration, followed by three washing steps in external solution. 20 μl of compounds is added to 40 μl in each well (1:3 dilution of compounds), and after mixing, 20 μl is removed so the volume is retained at 40 ul. After approximately 13 minutes recordings, 20 μl/well of 2 uM TTX, or 333 uM Tetracaine (for Nav1.5) is added to achieve full block.
For voltage protocol, an holding potential of −50 mV is applied during the whole experiment. A depolarizing step is applied to −10 mV for 10 ms, followed by a hyperpolarization step to −150 mV for 20 ms to allow channel recovery from inactivation. A second depolarizing step is applied from −150 mV to −10 mV for 10 ms, where currents are measured to derive blocking effects of compounds. Inhibition is determined based on 7.5 min of compound incubation.

hNav1.7, sequence (Q15858 other isoform, or with tags, fused parts or gaps): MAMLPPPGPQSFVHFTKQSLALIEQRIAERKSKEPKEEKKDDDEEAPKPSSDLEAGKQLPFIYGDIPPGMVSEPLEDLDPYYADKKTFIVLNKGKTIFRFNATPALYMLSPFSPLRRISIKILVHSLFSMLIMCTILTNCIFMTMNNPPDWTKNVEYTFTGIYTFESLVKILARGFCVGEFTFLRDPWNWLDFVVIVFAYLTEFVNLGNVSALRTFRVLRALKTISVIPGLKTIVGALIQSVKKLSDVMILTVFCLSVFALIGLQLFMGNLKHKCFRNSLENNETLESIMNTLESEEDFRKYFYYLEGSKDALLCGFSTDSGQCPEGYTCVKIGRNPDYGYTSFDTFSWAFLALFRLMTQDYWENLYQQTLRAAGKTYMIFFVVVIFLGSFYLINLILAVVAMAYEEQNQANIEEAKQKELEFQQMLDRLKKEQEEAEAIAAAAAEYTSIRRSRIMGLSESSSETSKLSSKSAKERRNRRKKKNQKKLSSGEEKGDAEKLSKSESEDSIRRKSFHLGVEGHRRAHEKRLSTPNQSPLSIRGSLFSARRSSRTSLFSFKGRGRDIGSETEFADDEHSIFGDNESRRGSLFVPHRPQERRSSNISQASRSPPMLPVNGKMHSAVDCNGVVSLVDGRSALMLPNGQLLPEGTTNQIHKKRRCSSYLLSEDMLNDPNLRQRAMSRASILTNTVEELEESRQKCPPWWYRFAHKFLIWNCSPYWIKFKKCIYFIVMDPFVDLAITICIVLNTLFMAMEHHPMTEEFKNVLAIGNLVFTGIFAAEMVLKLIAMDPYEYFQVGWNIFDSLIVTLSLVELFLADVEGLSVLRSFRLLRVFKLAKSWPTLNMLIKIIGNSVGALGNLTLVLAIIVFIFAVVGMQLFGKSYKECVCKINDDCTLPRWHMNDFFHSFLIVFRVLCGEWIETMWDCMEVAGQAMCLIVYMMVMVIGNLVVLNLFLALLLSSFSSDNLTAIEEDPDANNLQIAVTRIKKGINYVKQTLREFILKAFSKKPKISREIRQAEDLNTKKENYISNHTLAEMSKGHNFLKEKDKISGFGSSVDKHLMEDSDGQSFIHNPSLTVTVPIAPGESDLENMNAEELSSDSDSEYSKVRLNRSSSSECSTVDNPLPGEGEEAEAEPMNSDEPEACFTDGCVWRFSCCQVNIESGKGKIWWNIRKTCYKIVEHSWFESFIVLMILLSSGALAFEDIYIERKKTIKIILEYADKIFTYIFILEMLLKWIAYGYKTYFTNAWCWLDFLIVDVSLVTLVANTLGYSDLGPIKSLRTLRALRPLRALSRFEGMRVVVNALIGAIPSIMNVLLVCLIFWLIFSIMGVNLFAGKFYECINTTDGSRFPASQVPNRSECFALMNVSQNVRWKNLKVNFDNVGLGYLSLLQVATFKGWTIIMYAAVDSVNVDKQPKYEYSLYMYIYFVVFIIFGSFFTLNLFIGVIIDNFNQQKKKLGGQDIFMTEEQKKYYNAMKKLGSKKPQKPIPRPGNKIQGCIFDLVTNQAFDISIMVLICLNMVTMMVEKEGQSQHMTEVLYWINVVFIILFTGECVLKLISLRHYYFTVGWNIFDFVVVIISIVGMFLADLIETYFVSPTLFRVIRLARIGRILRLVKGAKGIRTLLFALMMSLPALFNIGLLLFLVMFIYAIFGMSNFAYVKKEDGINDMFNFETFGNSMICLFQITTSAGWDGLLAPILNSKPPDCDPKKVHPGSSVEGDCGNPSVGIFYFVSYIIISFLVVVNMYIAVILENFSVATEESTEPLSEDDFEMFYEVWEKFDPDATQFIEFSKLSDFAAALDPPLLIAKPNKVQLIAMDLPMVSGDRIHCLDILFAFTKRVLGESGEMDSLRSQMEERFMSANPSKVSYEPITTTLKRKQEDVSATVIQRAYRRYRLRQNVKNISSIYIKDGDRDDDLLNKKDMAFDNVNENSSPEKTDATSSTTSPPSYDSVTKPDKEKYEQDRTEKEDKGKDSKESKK

SMILES | pIC50
CN(C)[C@@]1(CCc2cccc(Cl)c2)CCCN(c2cc(F)c(S(=O)(=O)Nc3ccncn3)c(F)c2)C1 (single isomer, unassigned) [Example 90, formate] | 5.35
CN(C)[C@]1(CCc2cccc(Cl)c2)CCCN(c2cc(F)c(S(=O)(=O)Nc3ccncn3)c(F)c2)C1 (single isomer, unassigned) [Example 91, formate] | 7.94
CN[C@]1(CCc2cccc(C(F)(F)F)c2)CCCN(c2ccc(S(=O)(=O)Nc3ccncn3)c(F)c2)C1 [Example 3, (R)-2-Fluoro-4-(3-(methylamino)-3-(3-(trifluoromethyl)-phenethyl)piperidin-1-yl)-N-(pyrimidin-4-yl)benzenesulfonamide] | 7.67
Cc1cc(N2CCC[C@](CCc3cccc(C(F)(F)F)c3)(N(C)C)C2)cc(F)c1S(=O)(=O)Nc1ccncn1 [Example 9, (S)-4-(3-(Dimethylamino)-3-(3-(trifluoromethyl)phenethyl)-piperidin-1-yl)-2-fluoro-6-methyl-N-(pyrimidin-4-yl)benzenesulfonamide] | 6.22
Cc1cc(N2CCC[C@@](CCc3cccc(C(F)(F)F)c3)(N(C)C)C2)cc(F)c1S(=O)(=O)Nc1ccncn1 [Example 10, (R)-4-(3-(Dimethylamino)-3-(3-(trifluoromethyl)-phenethyl)piperidin-1-yl)-2-fluoro-6-methyl-N-(pyrimidin-4-yl)benzenesulfonamide] | 8.58
CN1CCC(CN(C)C2(CCc3cccc(C(F)(F)F)c3)CCCN(c3ccc(S(=O)(=O)Nc4ccncn4)c(F)c3)C2)C1 (stereo not shown) [Example 31, 2-Fluoro-4-(3-(methyl((1-methylpyrrolidin-3-yl)methyl)amino)-3-(3-(trifluoromethyl)phenethyl)piperidin-1-yl)-N-(pyrimidin-4-yl)benzenesulfonamide formate] | 8.07
CN1CC(N(C)[C@]2(CCc3cccc(C(F)(F)F)c3)CCCN(c3ccc(S(=O)(=O)Nc4ccncn4)c(F)c3)C2)C1 [Example 35, (R)-2-Fluoro-4-(3-(methyl(1-methylazetidin-3-yl)amino)-3-(3-(trifluoromethyl)phenethyl)piperidin-1-yl)-N-(pyrimidin-4-yl)benzenesulfonamide] | 7.39
CN(C)[C@@]1(CCc2cccc(C(F)(F)F)c2Cl)CCCN(c2cc(F)c(S(=O)(=O)Nc3ccncn3)c(F)c2)C1 [Example 40, (S)-4-(3-(2-Chloro-3-(trifluoromethyl)phenethyl)-3-(dimethylamino)piperidin-1-yl)-2,6-difluoro-N-(pyrimidin-4-yl)benzenesulfonamide] | 6.27
CN(C)[C@]1(CCc2cc(Cl)cc(C(F)(F)F)c2)CCCN(c2cc(F)c(S(=O)(=O)Nc3ccncn3)c(F)c2)C1 [Example 43, (R)-4-(3-(3-Chloro-5-(trifluoromethyl)phenethyl)-3-(dimethylamino)piperidin-1-yl)-2,6-difluoro-N-(pyrimidin-4-yl)benzenesulfonamide] | 9.35
CN(C)[C@@]1(C[C@@H]2CCc3ccc(C(F)(F)F)cc32)CCCN(c2cc(F)c(S(=O)(=O)Nc3ccncn3)c(F)c2)C1 [Example 46, 4-((R)-3-(Dimethylamino)-3-(((S)-6-(trifluoromethyl)-2,3-dihydro-1H-inden-1-yl)methyl)piperidin-1-yl)-2,6-difluoro-N-(pyrimidin-4-yl)benzenesulfonamide formate] | 5.88
CN(C)[C@@]1(C[C@H]2CCc3ccc(C(F)(F)F)cc32)CCCN(c2cc(F)c(S(=O)(=O)Nc3ccncn3)c(F)c2)C1 [Example 47, 4-((R)-3-(Dimethylamino)-3-(((R)-6-(trifluoromethyl)-2,3-dihydro-1H-inden-1-yl)methyl)piperidin-1-yl)-2,6-difluoro-N-(pyrimidin-4-yl)benzenesulfonamide formate] | 6.51
CN(C)[C@]1(C[C@H]2CCc3ccc(C(F)(F)F)cc32)CCCN(c2cc(F)c(S(=O)(=O)Nc3ccncn3)c(F)c2)C1 [Example 48, 4-((S)-3-(Dimethylamino)-3-(((R)-6-(trifluoromethyl)-2,3-dihydro-1H-inden-1-yl)methyl)piperidin-1-yl)-2,6-difluoro-N-(pyrimidin-4-yl)benzenesulfonamide formate] | 8.81
CN(C)[C@]1(C[C@@H]2CCc3ccc(C(F)(F)F)cc32)CCCN(c2cc(F)c(S(=O)(=O)Nc3ccncn3)c(F)c2)C1 [Example 49, 4-((S)-3-(Dimethylamino)-3-(((S)-6-(trifluoromethyl)-2,3-dihydro-1H-inden-1-yl)methyl)piperidin-1-yl)-2,6-difluoro-N-(pyrimidin-4-yl)benzenesulfonamide formate] | 7.95
CN(C)[C@@]1(CCC2CCCCC2)CCCN(c2cc(F)c(S(=O)(=O)Nc3ccncn3)c(F)c2)C1 [Example 92, (S)-4-(3-(2-Cyclohexylethyl)-3-(dimethylamino)piperidin-1-yl)-2,6-difluoro-N-(pyrimidin-4-yl)benzenesulfonamide formate] | 8.42
CN(C)[C@]1(CCC2CCCCC2)CCCN(c2cc(F)c(S(=O)(=O)Nc3ccncn3)c(F)c2)C1 [Example 93, (R)-4-(3-(2-Cyclohexylethyl)-3-(dimethylamino)piperidin-1-yl)-2,6-difluoro-N-(pyrimidin-4-yl)benzenesulfonamide formate] | 6.61
CN(C)[C@@]1(C2CC(c3cccc(C(F)(F)F)c3)C2)CCCN(c2cc(F)c(S(=O)(=O)Nc3ccncn3)c(F)c2)C1 (stereo partly drawn) [Example 94, 4-((R)-3-(Dimethylamino)-3-((1r,3R)-3-(3-(trifluoromethyl)phenyl)-cyclobutyl)piperidin-1-yl)-2,6-difluoro-N-(pyrimidin-4-yl)benzenesulfonamide] | 6.90
CN(C)C1(C2CC(c3cccc(C(F)(F)F)c3)C2)CCCN(c2cc(F)c(S(=O)(=O)Nc3ccncn3)c(F)c2)C1 (stereo not shown) [Example 95, 4-(3-(Dimethylamino)-3-(3-(3-(trifluoromethyl)phenyl)-cyclobutyl)piperidin-1-yl)-2,6-difluoro-N-(pyrimidin-4-yl)benzenesulfonamide] | 7.85
CN(C)[C@]1(C2CC(c3cccc(C(F)(F)F)c3)C2)CCCN(c2cc(F)c(S(=O)(=O)Nc3ccncn3)c(F)c2)C1 (stereo partly drawn) [Example 96, 4-((S)-3-(Dimethylamino)-3-((1s,3R)-3-(3-(trifluoromethyl)-phenyl)cyclobutyl)piperidin-1-yl)-2,6-difluoro-N-(pyrimidin-4-yl)benzenesulfonamide] | 8.74
CN(C)[C@@]1(CCc2cccc(C(F)(F)F)n2)CCCN(c2cc(F)c(S(=O)(=O)Nc3ccncn3)c(F)c2)C1 [Example 97, (R)-4-(3-(Dimethylamino)-3-(2-(6-(trifluoromethyl)pyridin-2-yl)ethyl)-piperidin-1-yl)-2,6-difluoro-N-(pyrimidin-4-yl)benzenesulfonamide formate] | 5.00
CN(C)[C@]1(CCc2cccc(C(F)(F)F)n2)CCCN(c2cc(F)c(S(=O)(=O)Nc3ccncn3)c(F)c2)C1 [Example 98, (S)-4-(3-(Dimethylamino)-3-(2-(6-(trifluoromethyl)pyridin-2-yl)ethyl)piperidin-1-yl)-2,6-difluoro-N-(pyrimidin-4-yl)benzenesulfonamide formate] | 7.20
CN(C)[C@@]1(CC2CCCC2)CCCN(c2cc(F)c(S(=O)(=O)Nc3ccncn3)c(F)c2)C1 [Example 99, (R)-4-(3-(Cyclopentylmethyl)-3-(dimethylamino)piperidin-1-yl)-2,6-difluoro-N-(pyrimidin-4-yl)benzenesulfonamide] | 5.05
CN(C)[C@]1(CC2CCCC2)CCCN(c2cc(F)c(S(=O)(=O)Nc3ccncn3)c(F)c2)C1 [Example 100, (S)-4-(3-(Cyclopentylmethyl)-3-(dimethylamino)piperidin-1-yl)-2,6-difluoro-N-(pyrimidin-4-yl)benzenesulfonamide] | 6.89
